Tests used:
M1 muscarinic receptor = target: T1, M1 muscarinic receptor (Homo sapiens, UniProt P11229); assay: Functional mobilization of intracellular calcium (FLIPR) in M1-CHO cells; format: cell-based; conditions: Table 4; for Emax: 100% efficacy is the maximum response obtained with the Carbachol control; for M1 Activity: modulating M1 receptor
T1 construct: expressed in transfected cells; host or cells: CHO (M1-CHO)
T1 sequence (P11229 1-460): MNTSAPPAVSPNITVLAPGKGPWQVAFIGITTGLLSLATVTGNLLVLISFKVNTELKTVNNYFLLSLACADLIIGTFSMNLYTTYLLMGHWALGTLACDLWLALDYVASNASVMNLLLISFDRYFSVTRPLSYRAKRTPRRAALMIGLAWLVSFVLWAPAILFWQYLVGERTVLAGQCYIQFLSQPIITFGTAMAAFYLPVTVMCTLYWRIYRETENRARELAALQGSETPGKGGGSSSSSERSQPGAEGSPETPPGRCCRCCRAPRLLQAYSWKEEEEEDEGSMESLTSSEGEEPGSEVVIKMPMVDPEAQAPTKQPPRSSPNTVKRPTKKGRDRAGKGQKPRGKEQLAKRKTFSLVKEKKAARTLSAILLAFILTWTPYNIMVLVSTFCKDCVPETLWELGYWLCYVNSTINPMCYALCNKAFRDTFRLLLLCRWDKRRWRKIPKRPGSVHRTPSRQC
How it was run: (§1)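 Intracellular calcium rise is measured by FLIPR fluorescence over 60 sec in CHO cells carrying human M1 or M4 receptors. Compounds are tested alone as agonists, or pre-incubated 15 min (or co-applied) ahead of carbachol at its EC80 to detect inhibition.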

M4 muscarinic receptor = target: T2, M4 muscarinic receptor (Homo sapiens, UniProt P08173); assay: Functional mobilization of intracellular calcium (FLIPR) in M4-CHO cells; format: cell-based; conditions: Table 4; for Emax: 100% efficacy is the maximum response obtained with the Carbachol control; for M4 Activity: modulating M4 receptor
T2 construct: expressed in transfected cells; host or cells: CHO (M4-CHO)
T2 sequence (P08173 1-479): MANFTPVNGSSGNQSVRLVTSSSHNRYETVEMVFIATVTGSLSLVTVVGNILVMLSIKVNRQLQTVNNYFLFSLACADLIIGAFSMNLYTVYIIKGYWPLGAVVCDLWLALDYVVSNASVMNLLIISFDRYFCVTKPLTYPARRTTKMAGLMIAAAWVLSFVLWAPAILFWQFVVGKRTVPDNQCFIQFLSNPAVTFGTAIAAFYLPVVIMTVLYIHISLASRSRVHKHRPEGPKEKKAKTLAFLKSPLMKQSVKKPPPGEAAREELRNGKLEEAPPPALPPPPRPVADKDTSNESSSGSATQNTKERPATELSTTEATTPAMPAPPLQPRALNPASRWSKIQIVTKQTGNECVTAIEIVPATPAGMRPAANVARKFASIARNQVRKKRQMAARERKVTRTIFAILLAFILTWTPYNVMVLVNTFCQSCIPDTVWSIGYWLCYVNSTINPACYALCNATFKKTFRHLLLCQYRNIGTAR
How it was run: as §1

| SMILES | Emax (M1 muscarinic receptor) [%] | M1 Activity (M1 muscarinic receptor) | Emax (M4 muscarinic receptor) [%] | M4 Activity (M4 muscarinic receptor) |
| --- | --- | --- | --- | --- |
| CN(C)C(=O)N1CC2(CCN(C3CCN(C(=O)CCC(F)(F)F)CC3)CC2)c2cc(F)ccc21 [compound 633] | 25 to 100 | xx (activity was measured to be between 2.0 μM and 5.0 μM) | < 25 | x (activity was measured to be greater than 5.0 μM) |
| CC(=O)N1CC2(CCN(C3CCN(C(=O)OC(C)C)C3)CC2)c2cc(F)ccc21 (stereo not shown) [compound 634] | < 25 | x (activity was measured to be greater than 5.0 μM) | < 25 | x (activity was measured to be greater than 5.0 μM) |
| CC(=O)N[C@H]1CCC2(CCN(CC3CCC3)CC2)c2ccccc21 [compound 636] | 25 to 100 | xxx (activity was measured to be less than 2.0 μM) | 25 to 100 | xxx (activity was measured to be less than 2.0 μM) |
| CC#CCOC(=O)N1CC[C@H](CN2CCC3(CC2)CN(C(C)=O)c2ccccc23)C1 [compound 637] | > 100 | xxx (activity was measured to be less than 2.0 μM) | 25 to 100 | xxx (activity was measured to be less than 2.0 μM) |
| CC(=O)N[C@H]1CC2(CCN(C3CCC(C(C)(C)C)CC3)CC2)c2ccccc21 (stereo partly shown) [compound 638] | < 25 | x (activity was measured to be greater than 5.0 μM) | < 25 | x (activity was measured to be greater than 5.0 μM) |
| O=C(N[C@H]1CC2(CCN(CC3CCCCC3)CC2)c2ccccc21)c1ccoc1 [compound 639] | 25 to 100 | x (activity was measured to be greater than 5.0 μM) | < 25 | x (activity was measured to be greater than 5.0 μM) |
| CC(=O)N[C@H]1CC2(CCN(CC3CC4CCC3C4)C2)c2ccc(F)cc21 (stereo partly shown) [compound 640] | 25 to 100 | xxx (activity was measured to be less than 2.0 μM) | 25 to 100 | xxx (activity was measured to be less than 2.0 μM) |
| CC(=O)N[C@H]1CC2(CCN(C3CC(C)(C)CC(C)(C)C3)CC2)c2ccccc21 [compound 641] | < 25 | x (activity was measured to be greater than 5.0 μM) | < 25 | x (activity was measured to be greater than 5.0 μM) |
| c1ccc2c(c1)CCCC21CCN(C2C[C@@H]3CC[C@H]2C3)CC1 (stereo partly shown) [compound 642] | 25 to 100 | x (activity was measured to be greater than 5.0 μM) | > 100 | xxx (activity was measured to be less than 2.0 μM) |
| COc1cc2c(cc1OC)C1(CCN(C3CCCCC3)CC1)C[C@@H]2N(C(C)=O)[C@@H](C)c1ccccc1 [compound 643] | < 25 | x (activity was measured to be greater than 5.0 μM) | < 25 | x (activity was measured to be greater than 5.0 μM) |
| CC(=O)N1CC2(CCN(CC3CCOCC3)CC2)c2cc(F)ccc21 [compound 644] | < 25 | x (activity was measured to be greater than 5.0 μM) | < 25 | x (activity was measured to be greater than 5.0 μM) |
| CCC#CCOC(=O)N1CC[C@@H](CN2CCC3(CC2)CN(C(=O)N(C)C)c2ccc(F)cc23)C1 [compound 645] | 25 to 100 | xxx (activity was measured to be less than 2.0 μM) | 25 to 100 | xxx (activity was measured to be less than 2.0 μM) |
| CC(=O)N[C@H]1CCC2(CCN(C3CCC(C(C)(C)C)CC3)CC2)c2ccccc21 (stereo partly shown) [compound 646] | 25 to 100 | xxx (activity was measured to be less than 2.0 μM) | < 25 | x (activity was measured to be greater than 5.0 μM) |
